Data: patent publication US20160194274A1, “PHENANTHRENE DERIVATIVES FOR USE AS MEDICAMENTS” (VALENTIA BIOPHARMA, priority 2012, published 2016)

What was measured:
cTNT exon 5 splicing = experiment: RT-PCR of cTNT splicing event in human myoblasts; format: cell-based
Procedure: FIG. 5. Recovering of DM1 aberrant cTNT splicing event. […] Upper section, right: Recovering was significant at 25 μM.
Additional assays involved: • Reverse Transcription-PCR (RT-PCR) to detect levels of normal/aberrant splicing events in specific genes. This approach was performed in human cells from patients (see FIG. 5) or from DM1 mouse (see FIG. 8 up) (HSA^LR, Mankodi A et al., Science, 289:1769-1773 (2000)) tissues (skeletal muscle), from which total RNA was extracted from ˜0.5-1.5×10^5 cells using the Zygem Tissue Plus kit. Serca 1, Cypher or cTNNT genes reverse transcription were performed and quantification of normal/aberrant spliced band forms was obtained (ImageJ software) after running PCR products in 2% agarose gels. As shown in FIGS. 5 and 8 compounds of the invention are able to recover disease phenotypes. • Drosophila Muscle Histology, where five-day old Drosophila thoraces were embedded in Epon for transversal, semi-thin sectioning. Muscle area was quantified (see FIG. 3) by binarizing images (equal dimensions) and quantifying pixels (%) within muscle tissue with ImageJ software. […] A minimum of 8 flies were analyzed in each case.

CCUG FAM-RNA probe = experiment: Gel retardation assay with FAM-CCUG probe (DM2); format: binding
Procedure: (§1) FIG. 9. VLT002 binding assessment in additional toxic repeats linked to disease through hairpin formation.
(§2) Fluorescence Electrophoretic Mobility Shift Assay to test RNA-compound binding. Briefly, an aliquot of carboxyfluorescein (FAM)-CUG10 RNA (DM1, HDL2, SCA8; see FIG. 6) was heated at 70° C. for 5 min and diluted to 300 nM. The binding reaction with compounds was then carried out as described in (Garcia-Lopez A et al. Proc. Natl. Acad. Sci. USA. 108(29):11866-71 (2011)). The reaction mix was loaded onto 8% polyacrylamide nondenaturing gels, and electrophoresis was conducted at 4° C. in TB 1× for approximately 30 min at 240V, followed by fluorescence visualization. Quantification of the free RNA band intensity was carried out using the ImageJ software. A non-linear regression analysis was used to calculate EC50, based on a total of three experimental replicates. Same approach was developed with (FAM)-CCUG8 (DM2), CAG10 (SCA3), CGG10 (FXTAS), GGGGCC5 (ALS/FSD), UGGAA6 (SCA31) probes (see FIG. 9).

UGGAA FAM-RNA probe = experiment: Gel retardation assay with FAM-UGGAA probe (SCA31); format: binding
Procedure: as §1, §2

CAG FAM-RNA probe = experiment: Gel retardation assay with FAM-CAG probe (SCA3); format: binding
Procedure: as §1, §2

FAM-CUU probe = experiment: Gel retardation assay with FAM-CUU probe (negative control); format: binding
GGGGCC FAM-RNA probe = experiment: Gel retardation assay with FAM-GGGGCC probe (FTD/ALS); format: binding
Procedure: as §1, §2

(CUG)23 RNA hairpin = experiment: 2-Aminopurine fluorescence assay of hairpin RNA unfolding; format: biochemical; settings: for modification of the hairpin loops formed by the CUG repeats (2-AP fluorescence): (CUG)23 RNA, dose-range
Procedure: FIG. 7. […] Measurements of the fluorescence emitted (Y-axis), measured as relative fluorescence units (RFU), by 2-aminopurine in a (CUG)23 RNA (1 μM) in the presence of different compounds (dose-range approach), relative to the fluorescence emitted by the free RNA. […] These effects were not observed when incubating the RNA with DMSO (not shown), or with the small molecule pentamidine, published as a compound able to disrupt MBNL1 binding to CUG hairpins (Warf M B et al. Proc. Natl. Acad. Sci. USA 106:18551-56 (2009)). * indicates p-value <0.05 ** p-value <0.005 *** p-value p<0.0005.
Aminopurine Fluorescence assay to detect hairpin double strand RNA unfolding. An aliquot of 2-aminopurine (2AP)-CUG23 RNA (1 μM in binding buffer) was heated at 90° C. for 3 min, placed on ice, and further diluted to 30 nM in a final volume of 1 mL in binding buffer.

Serca1 exon 22 splicing = experiment: Semi-quantitative RT-PCR of Serca1 splicing in HSA LR mouse skeletal muscle; format: in vivo; settings: three days a/i
Procedure: (§3) FIG. 8. Recovering of disease phenotypes (molecular, histological and functional) in in vivo DM1 mice (HSA^LR). Upper section: VLT002 and VLT025 suppressed splicing defects in DM1 mouse skeletal muscles. VLT002 (10 μg) and VLT025 (100 μg) were intramuscular injected in the right tibialis anterior (TA) and left quadriceps (Q), respectively, of HSA^LR mice that expressed 300 CTG repeats. […] All graphs show the mean and SEM from VLT002 and VLT025-responsive animals. Middle section: Immunofluorescent detection of trans-membrane Clcn1 protein (cell outlines in gray) in quadriceps sections of no-DM1 mouse (control) and HSA^LR mice without treatment (10150.5 QD-DMSO treated) and after VLT025 treatment (10150.5 QI).
Additional assays involved: • Reverse Transcription-PCR (RT-PCR) to detect levels of normal/aberrant splicing events in specific genes. […] Serca 1, Cypher or cTNNT genes reverse transcription were performed and quantification of normal/aberrant spliced band forms was obtained (ImageJ software) after running PCR products in 2% agarose gels. […] Muscle area was quantified (see FIG. 3) by binarizing images (equal dimensions) and quantifying pixels (%) within muscle tissue with ImageJ software. […] A minimum of 8 flies were analyzed in each case.

CGG FAM-RNA probe = experiment: Gel retardation assay with FAM-CGG probe (FXTAS); format: binding
Procedure: as §1, §2

Clcn1 protein = experiment: Immunofluorescent detection of Clcn1 protein in HSA LR mouse quadriceps; format: in vivo; settings: 100 μg
Procedure: as §3
Also, an immunohistochemistry approach was used to measure ClC-1 protein levels (see FIG. 8 middle) in mouse tissues (skeletal muscle). Briefly, frozen sections of tibialis anterior & quadriceps muscle were prepared for routine immunostaining by using antibody against the ClC-1 protein (Alpha Diagnostic, San Antonio, Tex.). Primary antibody concentration used was 1:50 for ClC-1. Secondary antibody was goat anti-rabbit Alexa Fluor 488 and 546 (Invitrogen) at 1:400. Stacks of Z plane images were processed by using a blind point spread function. […]

Structure (SMILES): CN(C)CCc1cc2c(c3c1ccc1ccccc13)OCO2 [VLT002, Stephenanthrine]
- recovering of normal cTNT splicing (ex5 exclusion) (cTNT exon 5 splicing; DM1 myoblasts, 25 μM): partial recovering
- expression of housekeeping gene (GAPDH) (cTNT exon 5 splicing; human myoblasts): No expression changes
- levels of cTNT exon 5 exclusion in no DM1 cells (cTNT exon 5 splicing; no DM1 human myoblasts, dose-response): no changes
- binding to CCUG (DM2) probe (CCUG FAM-RNA probe): caused retention of the complex in the well
- binding to UGGAA (SCA31) probe (UGGAA FAM-RNA probe): caused retention of the complex in the well
- binding to CAG (SCA3) probe (CAG FAM-RNA probe): caused retention of the complex in the well
- binding to FAM-CUU probe (FAM-CUU probe): did not bind
- binding to GGGGCC (FTD/ALS) probe (GGGGCC FAM-RNA probe): caused retention of the complex in the well
- modification of the hairpin loops formed by the CUG repeats (2-AP fluorescence) ((CUG)23 RNA hairpin): modify the hairpin loops
- splicing defects (exon 22) of Serca1 (Serca1 exon 22 splicing; 10 μg intramuscular, right tibialis anterior): partially reversed splicing defects
- binding to CGG (FXTAS) probe (CGG FAM-RNA probe): caused retention of the complex in the well

Structure (SMILES): C[N+](C)(C)CCc1cc2c(c3c1ccc1ccccc13)OCO2 [VLT025]
- modification of the hairpin loops formed by the CUG repeats (2-AP fluorescence) ((CUG)23 RNA hairpin): modify the hairpin loops
- decreases in the fluorescence of 2-AP ((CUG)23 RNA hairpin; change to more structured double-stranded): noteworthy decreases
- Clcn1 fluorescent signal vs DMSO-treated contra-lateral limb (Clcn1 protein): significantly stronger
- splicing defects (exon 22) of Serca1 (Serca1 exon 22 splicing; 100 μg intramuscular, left quadriceps): partially reversed splicing defects
